Assay results reported in patent US10065973B2, “Substituted aminothiazolopyrimidinedione for the treatment and prophylaxis of virus infection” (Hoffmann-La Roche Inc., priority 2016, dated 2018).
pEC50: −log10 of the molar value.

These molecules were tested against human TLR7 (Homo sapiens (Human), UniProt Q9NYK1) (assay: HEK293-Blue-hTLR-7 cells assay (SEAP reporter)). Details: 20 hours incubation.
Chain of human TLR7 (Q9NYK1 27-1049): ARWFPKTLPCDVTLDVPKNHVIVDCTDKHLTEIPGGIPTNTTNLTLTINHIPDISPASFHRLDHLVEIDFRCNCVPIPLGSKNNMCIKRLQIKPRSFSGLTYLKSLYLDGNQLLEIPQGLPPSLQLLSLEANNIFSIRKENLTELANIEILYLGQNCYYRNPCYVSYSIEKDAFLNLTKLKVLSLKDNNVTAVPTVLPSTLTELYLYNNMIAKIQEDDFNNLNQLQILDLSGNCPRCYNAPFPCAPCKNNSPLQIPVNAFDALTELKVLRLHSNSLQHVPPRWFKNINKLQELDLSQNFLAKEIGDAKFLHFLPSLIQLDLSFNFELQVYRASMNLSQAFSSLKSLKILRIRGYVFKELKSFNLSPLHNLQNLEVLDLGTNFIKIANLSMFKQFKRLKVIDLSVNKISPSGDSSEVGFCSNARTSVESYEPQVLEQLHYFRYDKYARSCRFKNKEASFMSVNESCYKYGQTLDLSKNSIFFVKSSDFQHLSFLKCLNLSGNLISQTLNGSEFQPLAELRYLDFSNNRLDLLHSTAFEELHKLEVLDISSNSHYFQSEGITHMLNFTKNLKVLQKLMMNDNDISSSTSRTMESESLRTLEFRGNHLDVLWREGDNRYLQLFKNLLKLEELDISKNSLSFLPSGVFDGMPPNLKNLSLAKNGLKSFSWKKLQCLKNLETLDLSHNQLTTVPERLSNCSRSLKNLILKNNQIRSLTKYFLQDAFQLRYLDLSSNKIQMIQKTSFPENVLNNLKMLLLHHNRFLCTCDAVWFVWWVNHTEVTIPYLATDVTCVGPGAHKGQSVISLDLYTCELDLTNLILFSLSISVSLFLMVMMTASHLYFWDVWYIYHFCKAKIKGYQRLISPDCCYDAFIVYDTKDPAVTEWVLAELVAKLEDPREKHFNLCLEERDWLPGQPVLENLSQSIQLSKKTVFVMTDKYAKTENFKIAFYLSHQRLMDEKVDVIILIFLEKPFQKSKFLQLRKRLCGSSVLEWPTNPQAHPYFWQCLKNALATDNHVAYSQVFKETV
Assay type: cell-based
Text: HEK293-Blue-hTLR-7 Cells Assay: A stable HEK293-Blue-hTLR-7 cell line was purchased from InvivoGen (Cat.#: hkb-htlr7, San Diego, Calif., USA). These cells were designed for studying the stimulation of human TLR7 by monitoring the activation of NF-κB. A SEAP (secreted embryonic alkaline phosphatase) reporter gene was placed under the control of the IFN-β minimal promoter fused to five NF-κB and AP-1-binding sites. The SEAP was induced by activating NF-κB and AP-1 via stimulating HEK-Blue hTLR7 cells with TLR7 ligands. Therefore the reporter expression was regulated by the NF-κB promoter upon stimulation of human TLR7. The cell culture supernatant SEAP reporter activity was determined using QUANTI-Blue™ kit (Cat.#: rep-qb1, Invivogen, San Diego, Ca, USA) at a wavelength of 640 nm, a detection medium that turns purple to blue in the presence of alkaline phosphatase. HEK293-Blue-hTLR7 cells were incubated at a density of 250,000˜450,000 cells/mL in a volume of 180 μL in a 96-well plate in Dulbecco's Modified Eagle's medium (DMEM) containing 4.5 g/l glucose, 50 U/ml penicillin, […] streptomycin, […] Normocin, 2 mM L-glutamine, 10% (v/v) heat-inactivated fetal bovine serum for 24 h. Then the HEK293-Blue-hTLR-7 cells were incubated with addition of 20 μL test compound in a serial dilution in the presence of final DMSO at 1% and perform incubation under 37° C. in a CO2 incubator for 20 hours. Then 20 μL of the supernatant from each well was incubated with 180 μL Quanti-blue substrate solution at 37° C. for 1-3 hours and the absorbance was read at 620˜655 nm using a spectrophotometer.
In the case of `CC(O)[C@@H]1C[C@@H](CO)O[C@H]1n1c(=O)sc2c(=O)[nH]c(N)nc21` (single isomer, unassigned) [Example 1-B], the pEC50 was 4.41.
In the case of `Nc1nc2c(sc(=O)n2[C@@H]2O[C@H](CO)C[C@H]2C(O)C2CC2)c(=O)[nH]1` (single isomer, unassigned) [Example 2-A], the pEC50 was 3.81.
In the case of `CCC(O)[C@@H]1C[C@@H](CO)O[C@H]1n1c(=O)sc2c(=O)[nH]c(N)nc21` (single isomer, unassigned) [Example 3-A], the pEC50 was 3.95.
Molecule `Nc1nc2c(sc(=O)n2[C@@H]2O[C@H](CO)C[C@H]2C(O)c2ccccc2)c(=O)[nH]1` (single isomer, unassigned) [Example 4-A] has a pEC50 of 3.69.
`COc1ccccc1C(O)[C@@H]1C[C@@H](CO)O[C@H]1n1c(=O)sc2c(=O)[nH]c(N)nc21` (single isomer, unassigned) [Example 5-A] showed a pEC50 of 3.95.
`Nc1nc2c(sc(=O)n2[C@@H]2O[C@H](CO)C[C@H]2C(O)c2ccccc2Cl)c(=O)[nH]1` (single isomer, unassigned) [Example 6-A] showed a pEC50 of 4.10.
Work on `CC[C@H](O)[C@@H]1C[C@@H]([C@H](O)c2ccccc2)[C@H](n2c(=O)sc3c(=O)[nH]c(N)nc32)O1` (single isomer, unassigned) [Example 18-A] yielded a pEC50 of 4.98.
`CC[C@H](O)[C@@H]1C[C@@H]([C@H](O)c2ccccc2)[C@H](n2c(=O)sc3c(=O)[nH]c(N)nc32)O1` (single isomer, unassigned) [Example 18-B] showed a pEC50 of 5.01.
In the case of `Nc1nc2c(sc(=O)n2[C@@H]2O[C@H](CO)C[C@H]2[C@H](O)c2ccccn2)c(=O)[nH]1` [Example 7, 5-Amino-3-[(2R,3S,5S)-5-(hydroxymethyl)-3-[(S)-hydroxy(2-pyridyl)methyl]tetrahydrofuran-2-yl]-6H-thiazolo[4,5-d]pyrimidine-2,7-dione], the pEC50 was 3.65.
For `CC(C)(O)[C@@H]1C[C@@H](CO)O[C@H]1n1c(=O)sc2c(=O)[nH]c(N)nc21` [Example 8, 5-Amino-3-[(2R,3S,5S)-5-(hydroxymethyl)-3-(1-hydroxy-1-methyl-ethyl)tetrahydrofuran-2-yl]-6H-thiazolo[4,5-d]pyrimidine-2,7-dione], the pEC50 was 4.64.
`CC[C@H](O)[C@@H]1C[C@@H]([C@@H](C)OC(C)=O)[C@H](n2c(=O)sc3c(=O)[nH]c(N)nc32)O1` [Example 9-A, [(1R)-1-[(2R,3S,5S)-2-(5-Amino-2,7-dioxo-6H-thiazolo[4,5-d]pyrimidin-3-yl)-5-[(1S)-1-hydroxypropyl]tetrahydrofuran-3-yl]ethyl] acetate] showed a pEC50 of 5.08.
Molecule `CC[C@H](O)[C@@H]1C[C@@H]([C@H](C)OC(C)=O)[C@H](n2c(=O)sc3c(=O)[nH]c(N)nc32)O1` [Example 9-B, [(1S)-1-[(2R,3S,5S)-2-(5-amino-2,7-dioxo-6H-thiazolo[4,5-d]pyrimidin-3-yl)-5-[(1S)-1-hydroxypropyl]tetrahydrofuran-3-yl]ethyl] acetate] has a pEC50 of 5.03.
`CC[C@H](O)[C@@H]1C[C@@H]([C@@H](C)O)[C@H](n2c(=O)sc3c(=O)[nH]c(N)nc32)O1` [Example 10-A, 5-Amino-3-[(2R,3S,5S)-3-[(1R)-1-hydroxyethyl]-5-[(1S)-1-hydroxypropyl]tetrahydrofuran-2-yl]-6H-thiazolo[4,5-d]pyrimidine-2,7-dione] showed a pEC50 of 5.57.
`CC[C@H](O)[C@@H]1C[C@@H]([C@H](C)O)[C@H](n2c(=O)sc3c(=O)[nH]c(N)nc32)O1` [Example 10-B, 5-amino-3-[(2R,3S,5S)-3-[(1S)-1-hydroxyethyl]-5-[(1S)-1-hydroxypropyl]tetrahydrofuran-2-yl]-6H-thiazolo[4,5-d]pyrimidine-2,7-dione] gave a pEC50 of 4.46.
With `CCOC(=O)O[C@H](C)[C@@H]1C[C@@H]([C@@H](O)CC)O[C@H]1n1c(=O)sc2c(=O)[nH]c(N)nc21` [Example 11, [(1R)-1-[(2R,3S,5S)-2-(5-Amino-2,7-dioxo-6H-thiazolo[4,5-d]pyrimidin-3-yl)-5-[(1S)-1-hydroxypropyl]tetrahydrofuran-3-yl]ethyl] ethyl carbonate] the pEC50 was 4.59.
With `CC[C@H](O)[C@@H]1C[C@@H]([C@@H](C)OC(=O)c2ccccc2)[C@H](n2c(=O)sc3c(=O)[nH]c(N)nc32)O1` [Example 12, [(1R)-1-[(2R,3S,5S)-2-(5-Amino-2,7-dioxo-6H-thiazolo[4,5-d]pyrimidin-3-yl)-5-[(1S)-1-hydroxypropyl]tetrahydrofuran-3-yl]ethyl] benzoate] the pEC50 was 5.19.
For `CC[C@H](O)[C@@H]1C[C@@H]([C@@H](C)OC)[C@H](n2c(=O)sc3c(=O)[nH]c(N)nc32)O1` [Example 13, 5-Amino-3-[(2R,3S,5S)-5-[(1S)-1-hydroxypropyl]-3-[(1R)-1-methoxyethyl]tetrahydrofuran-2-yl]-6H-thiazolo[4,5-d]pyrimidine-2,7-dione], the pEC50 was 4.44.
For `CC[C@H](O)[C@@H]1C[C@@H]([C@@H](C)OCc2ccccc2)[C@H](n2c(=O)sc3c(=O)[nH]c(N)nc32)O1` [Example 14, 5-Amino-3-[(2R,3S,5S)-3-[(1R)-1-benzyloxyethyl]-5-[(1S)-1-hydroxypropyl]tetrahydrofuran-2-yl]-6H-thiazolo[4,5-d]pyrimidine-2,7-dione], the pEC50 was 4.22.
With `C=CCO[C@H](C)[C@@H]1C[C@@H]([C@@H](O)CC)O[C@H]1n1c(=O)sc2c(=O)[nH]c(N)nc21` [Example 15, 3-[(2R,3S,5S)-3-[(1R)-1-Allyloxyethyl]-5-[(1S)-1-hydroxypropyl]tetrahydrofuran-2-yl]-5-amino-6H-thiazolo[4,5-d]pyrimidine-2,7-dione] the pEC50 was 4.17.
Work on `CC[C@H](O)[C@@H]1C[C@@H]([C@H](C)OC)[C@H](n2c(=O)sc3c(=O)[nH]c(N)nc32)O1` [Example 16, 5-Amino-3-[(2R,3S,5S)-5-[(1S)-1-hydroxypropyl]-3-[(1S)-1-methoxyethyl]tetrahydrofuran-2-yl]-6H-thiazolo[4,5-d]pyrimidine-2,7-dione] yielded a pEC50 of 4.46.
`CC[C@H](OC(C)=O)[C@@H]1C[C@@H]([C@@H](C)O)[C@H](n2c(=O)sc3c(=O)[nH]c(N)nc32)O1` [Example 17, [(1S)-1-[(2S,4S,5R)-5-(5-Amino-2,7-dioxo-6H-thiazolo[4,5-d]pyrimidin-3-yl)-4-[(1R)-1-hydroxyethyl]tetrahydrofuran-2-yl]propyl] acetate] was tested, and the pEC50 was 4.82.
Work on `CC[C@H](O)[C@@H]1C[C@@H](C(C)(C)OC(C)=O)[C@H](n2c(=O)sc3c(=O)[nH]c(N)nc32)O1` [Example 19, [1-[(2R,3S,5S)-2-(5-Amino-2,7-dioxo-6H-thiazolo[4,5-d]pyrimidin-3-yl)-5-[(1S)-1-hydroxypropyl]tetrahydrofuran-3-yl]-1-methyl-ethyl] acetate] yielded a pEC50 of 4.72.
With `CC[C@H](O)[C@@H]1C[C@@H](C(C)(C)O)[C@H](n2c(=O)sc3c(=O)[nH]c(N)nc32)O1` [Example 20, 5-Amino-3-[(2R,3S,5S)-3-(1-hydroxy-1-methyl-ethyl)-5-[(1S)-1-hydroxypropyl]tetrahydrofuran-2-yl]-6H-thiazolo[4,5-d]pyrimidine-2,7-dione] the pEC50 was 5.52.
